The subject of experiment [1] is Cryptocrysis rubens. The experiment is described as follows: final biotransformation culture, 7 days in the presence of precursor. Particulars: 200 μg/ml precursor, starting cell concentration not determined. The format is cell-based. As for the experimental part:
(§1) Table V below lists each microalgae in the final panel, its starting cell concentration, the concentration of precursor compound in the growth medium, the starting and final cell count, and the method of separation of the resulting biomass from the culture supernatant. The final panel of algal strains were grown for 7 days under the conditions listed in Table III above in the presence of the precursor compound prior to separation of the resulting biomass from the culture supernatant.

Experiment [2] relates to Moromastix sp. The description is as above. The format is cell-based. Particulars: 200 μg/ml precursor, starting cell concentration 6.16 × 10^5. As for the experimental part:
as §1

Experiment [3] has as its system Chloromonas rosae. Described as above. The format is cell-based. Particulars: 100 μg/ml precursor, starting cell concentration 1.75 × 10^5. The method, then:
as §1

In experiment [4] the test system is Phaeodactylum. The experiment is described as follows: growth (cell counts) of microalgae in the presence of precursor compound. The format is cell-based, Phaeodactylum tricornutum. Particulars: 100 μg/ml, cell counts on days 0, 2, 4 and 7, relative to growth controls. The method, then: (§2) Three 15 ml cultures of each of the microalgae listed in Table III above were grown in 30 ml flasks. Growth control cultures contained algae and medium only. Growth control cultures in the presence of solvent contained algae, medium, and 0.06 ml of methanol, the solvent chosen for the precursor compound. Experimental cultures contained algae, medium, and 0.06 ml of a 25 mg/ml solution of (S)-(−)-3-(Benzyloxycarbonyl)-4-oxazolidinecarboxylic acid (precursor compound) dissolved in methanol, yielding a final concentration of 100 μg/ml. Cell counts were performed using a haemocytometer on days 0, 2, 4 and 7.
as §2, with “VIII” for “III”, “Precursor 2.” for “the precursor compound.”, “tert-butyl[S-(R*-R*)]-(−)-(1-oxiranyl-2-phenylethylcarbamate)” for “(S)-(−)-3-(Benzyloxycarbonyl)-4-oxazolidinecarboxylic acid”, “concentration in the culture medium” for “concentration”

Experiment [5] deals with Chlorella. The description is as above. The format is cell-based, Chlorella minutisima. Particulars: 100 μg/ml, cell counts on days 0, 2, 4 and 7, relative to growth controls. As for the experimental part: as §2
as §2, with “VIII” for “III”, “Precursor 2.” for “the precursor compound.”, “tert-butyl[S-(R*-R*)]-(−)-(1-oxiranyl-2-phenylethylcarbamate)” for “(S)-(−)-3-(Benzyloxycarbonyl)-4-oxazolidinecarboxylic acid”, “concentration in the culture medium” for “concentration”

Experiment [6] relates to Chlamydomonas. Described as above. The format is cell-based, Chlamydomonas reinhardtii. Particulars: 100 μg/ml, cell counts on days 0, 2, 4 and 7, relative to growth controls. As for the experimental part: as §2
The subject of experiment [7] is Platymonas. Described as above. Particulars: 100 μg/ml, cell counts on days 0, 2, 4 and 7, relative to growth controls. In kind it is cell-based, Platymonas sp. As for the experimental part:
as §2

In experiment [8] the test system is Euglena gracilis. The experiment is described as follows: final biotransformation culture, 7 days in the presence of precursor. Particulars: 100 μg/ml precursor, starting cell concentration not determined. In kind it is cell-based. As for the experimental part: (§3) Table V below lists each microalgae in the final panel, its starting cell concentration, the concentration of precursor compound in the growth medium, the starting and final cell count, and the method of separation of the resulting biomass from the culture supernatant. The final panel of algal strains were grown for 7 days under the conditions listed in Table III above in the presence of the precursor compound prior to separation of the resulting biomass from the culture supernatant. Cell counts were not determined in every case for the strains listed in Table V. Table X below lists each microalgae in the final panel, its starting cell concentration, the concentration of precursor compound in the growth medium, the starting and final cell count, and the method of separation of the resulting biomass from the culture supernatant. The final panel of algal strains was grown for 7 days under the conditions listed in Table VIII above in the presence of Precursor 2 prior to separation of the resulting biomass from the culture supernatant.

Experiment [9] concerns Olithodiscus sp. The experiment is described as above. The format is cell-based. Particulars: 50 μg/ml precursor, starting cell concentration 1.09 × 10^6. The method, then:
as §3

The test system of experiment [10] is Chlamydomonas reinhardtii. The experiment is described as above. In kind it is cell-based. Particulars: 200 μg/ml precursor, starting cell concentration 2.2 × 10^7. As for the experimental part:
as §3

For experiment [11], the system named is Chlorella minutisima. Described as above. The format is cell-based. Particulars: 100 μg/ml precursor, starting cell concentration 1.52 × 10^6. The method, then:
as §3

The test system of experiment [12] is Cryptomonas ovata. The description is as above. In kind it is cell-based. Particulars: 200 μg/ml precursor, starting cell concentration not determined. The method, then: as §3
The subject of experiment [13] is Scenedesmus obliquus. Described as above. In kind it is cell-based. Particulars: 200 μg/ml precursor, starting cell concentration 6.38 × 10^6. As for the experimental part: as §3
In experiment [14] the test system is Phaeodactylum tricornutum. The experiment is described as above. The format is cell-based. Particulars: 200 μg/ml precursor, starting cell concentration 1.18 × 10^6. As for the experimental part:
as §3

Experiment [15] deals with Botrydium. Put plainly: growth (cell counts) of microalgae in the presence of precursor compound. In kind it is cell-based. Particulars: 100 μg/ml, cell counts on days 0, 2, 4 and 7, relative to growth controls. The method, then:
as §2

Take `O=C(O)[C@@H]1COCN1C(=O)OCc1ccccc1` [precursor compound, (S)-(−)-3-(Benzyloxycarbonyl)-4-oxazolidinecarboxylic acid]: the “Final Cell Concentration” value in experiment [1] is 3.09 × 10^6; in [2], 7.4 × 10^5; in [3] it was 1.13 × 10^6; in experiment [8], 6.6 × 10^5; in experiment [9] it was 1.3 × 10^6; in experiment [10], 1.58 × 10^9. Besides, the “Final Cell Concentration” value in experiment [11] is listed as 1.08 × 10^7; in experiment [12] it was 1.3 × 10^5; in [13], 2.12 × 10^7; in experiment [14], 4.08 × 10^6. Besides, the “effect on growth of Phaeodactylum” value in [4] was “moderate, but not severe decreases in growth relative to the growth controls”. Also, the “effect on growth of Chlorella” value is on record as “increased growth relative to the growth controls” in [5] and “negatively affected” in experiment [5] (listed as Precursor 2 used in Example 1). The “effect on growth of Chlamydomonas” value in [6] is listed as “moderate, but not severe decreases in growth relative to the growth controls”. For the same compound, the “effect on growth of Platymonas” value in [7] was “causing cell death”. The “effect on growth of Botrydium” value in [15] is “increased growth relative to the growth controls”.

Values taken from patent US20040175782A1, “Biotransformation of compounds using non-prokaryotic microalgae” (TETHYS RESEARCH LLC, priority 2003, published 2004).
